From patent US20020155192A1, “Yeast transport isoforms” (priority 2000, published 2002)
Like-named read-outs stand apart in the source and are kept apart here.

Experiments:
Assay type in all cases: biochemical
[1] = biological target: T1, Odc1p (Saccharomyces cerevisiae, UniProt Q03028); experiment: Dependence on internal substrate of [14C]oxoglutarate uptake into proteoliposomes reconstituted with recombinant Odc1p; details: for [14C]oxoglutarate transport: proteoliposomes preloaded with 20 mM internal substrate, 0.6 mM [14C]oxoglutarate, 45 seconds
T1 construct: made in house; host or cells: S. cerevisiae odc1Δodc2Δ (YPH499 background) carrying pYES2-based pODC1; purified from mitochondria on Ni-NTA agarose
T1 sequence (Q03028 1-310): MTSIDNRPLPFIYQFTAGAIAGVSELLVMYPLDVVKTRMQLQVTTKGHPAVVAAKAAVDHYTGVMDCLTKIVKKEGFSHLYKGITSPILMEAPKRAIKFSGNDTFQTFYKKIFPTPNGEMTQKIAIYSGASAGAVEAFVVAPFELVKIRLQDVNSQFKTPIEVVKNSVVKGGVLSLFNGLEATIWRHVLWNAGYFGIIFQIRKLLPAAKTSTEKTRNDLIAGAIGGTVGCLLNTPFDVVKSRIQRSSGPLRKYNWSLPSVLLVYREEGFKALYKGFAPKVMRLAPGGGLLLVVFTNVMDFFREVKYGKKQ
Protocol: (§1) Reconstitution of the ODC proteins into liposomes—Purified ODC proteins were reconstituted by cyclic removal of the detergent with a hydrophobic column (13). The composition of the initial mixture used for reconstitution was: 200 μl of purified isoform (0.3-0.4 μg of protein), 70 μl of 10% Triton X-114, 100 μl of 10% phospholipids in the form of sonicated liposomes, 20 mM oxoglutarate (except where otherwise indicated), 10 mM Pipes (pH 7.0), 0.7 mg of cardiolipin (Sigma) and water to a final volume of 700 μl. These components were mixed thoroughly, and the mixture was recycled 13 times through an Amberlite column (Supelco) (3.0 cm×0.5 cm) preequilibrated with a buffer containing 10 mM Pipes (pH 7.0) and with the substrate at the same concentration as in the starting mixture. All operations were performed at 4° C., except the passages through Amberlite, which were carried out at room temperature.
(§2) External substrate was removed from proteoliposomes on a Sephadex G-75 column preequilibrated with buffer F (50 mM NaCl and 10 mM PIPES, pH 7.0). Transport at 25° C. was started by adding [^14C]oxoglutarate (unless otherwise indicated) to the proteoliposomes, and terminated by addition of 30 mM pyridoxal 5′-phosphate and 10 mM bathophenanthroline (the “inhibitor-stop” method (13)). In controls, inhibitors were added with the labelled substrate. The external radioactivity was removed on Sephadex G-75 and the internal radioactivity was measured. […] The initial rate of transport was calculated in mmol/min per g protein from the time course of isotope equilibration (13). Various other transport activities were also assayed by the inhibitor-stop method. For efflux measurements, the internal substrate pool of the proteoliposomes was made radioactive by carrier-mediated exchange equilibration (13) with 0.1 mM [^14C]oxoglutarate added at high specific radioactivity. After 60 min, the residual external radioactivity was removed by passing the proteoliposomes again through a column of Sephadex G-75. Efflux was started by adding unlabelled external substrate or buffer F alone and terminated by adding the inhibitors indicated above.
(§3) The substrate specificity of purified Odc1p and Odc2p was investigated further by measuring the uptake of [^14C]oxoglutarate into proteoliposomes which had been preloaded with various substrates.
(§4) Proteoliposomes were preloaded internally with various substrates (concentration, 20 mM). Transport was started by adding [^14C]oxoglutarate (final concentration, 0.6 mM) and terminated after 45 seconds.

[2] = biological target: T2, Odc2p (Saccharomyces cerevisiae, UniProt Q99297); experiment: Dependence on internal substrate of [14C]oxoglutarate uptake into proteoliposomes reconstituted with recombinant Odc2p; details: for [14C]oxoglutarate transport: proteoliposomes preloaded with 20 mM internal substrate, 0.6 mM [14C]oxoglutarate, 45 seconds
T2 construct: made in house; host or cells: S. cerevisiae odc1Δodc2Δ (YPH499 background) carrying pYES2-based pODC2; purified from mitochondria on Ni-NTA agarose
T2 sequence (Q99297 1-307): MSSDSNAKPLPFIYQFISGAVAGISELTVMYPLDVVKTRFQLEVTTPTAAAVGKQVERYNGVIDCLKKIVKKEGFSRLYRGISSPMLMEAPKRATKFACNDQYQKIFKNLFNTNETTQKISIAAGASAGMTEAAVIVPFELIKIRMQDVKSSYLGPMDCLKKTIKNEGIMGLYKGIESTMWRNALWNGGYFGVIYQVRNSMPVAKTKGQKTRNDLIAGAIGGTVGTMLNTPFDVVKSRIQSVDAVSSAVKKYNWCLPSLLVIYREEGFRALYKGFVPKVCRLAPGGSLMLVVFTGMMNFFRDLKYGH
Protocol: as §1, §2, §3, §4

[3] = biological target: T1, Odc1p; experiment: Effect of inhibitors and external compounds on the [14C]oxoglutarate/oxoglutarate exchange by proteoliposomes reconstituted with Odc1p; details: for effect of oxomonocarboxylates on the rate of uptake of 0.4 mM oxoglutarate (in words): 8 mM, 20 times greater than the substrate, data not shown
Protocol: FIG. 5. Effect of dicarboxylates and 2-oxodicarboxylates with different carbon chain length on the rate of [^14C]oxoglutarate uptake into proteoliposomes reconstituted with recombinant Odc1p. Proteoliposomes were preloaded with 20 mM oxoglutarate and reconstituted with recombinant Odc1p. Transport was initiated by the addition of 0.4 mM [^14C]oxoglutarate and terminated after 45 seconds. Oxalate, malonate, succinate, glutarate, adipate, pimelate, suberate (▪) and the corresponding 2-oxoacids (●) were added simultaneously with [1^4C]oxoglutarate at 4.0 mM concentration.
as §1, §2
(§5) In addition, the ability of non-radioactive potential substrates to inhibit the oxoglutarate/oxoglutarate exchange was examined.
Proteoliposomes were preloaded internally with 20 mM oxoglutarate and transport was initiated by the addition of 0.4 mM [^14C]oxoglutarate.

[4] = biological target: T2, Odc2p; experiment: Effect of inhibitors and external compounds on the [14C]oxoglutarate/oxoglutarate exchange by proteoliposomes reconstituted with Odc2p; details: for effect of oxomonocarboxylates on the rate of uptake of 0.4 mM oxoglutarate (in words): 8 mM, 20 times greater than the substrate
Protocol: as §1, §2, §5
Proteoliposomes were preloaded internally with 20 mM oxoglutarate and transport was initiated by the addition of 0.4 mM [^14C]oxoglutarate. The incubation time was 45 seconds. Thiol reagents and α-cyanocinnamate were added 2 min before the labelled substrate; the other inhibitors and external substrates were added together with [^14C]oxoglutarate. The final concentration of the inhibitors was 4 mM, except for mercurials (10 μM), carboxyatractyloside (0.1 mM), N-ethylmaleimide and α-cyanocinnamate (2 mM).

[5] = biological target: T2, Odc2p; experiment: Homoexchange of other substrates in proteoliposomes reconstituted with Odc2p; details: internal concentration 10 mM, external concentration 1 mM
Protocol: as §2
(§6) In order to obtain further information about the mechanism of transport catalyzed by Odc1p and Odc2p, the efflux of [^14C]oxoglutarate from pre-labelled active proteoliposomes was investigated as it provides a more convenient assay for unidirectional transport (13).

[6] = biological target: T1, Odc1p; experiment: Homoexchange of other substrates in proteoliposomes reconstituted with Odc1p; details: internal concentration 10 mM, external concentration 1 mM
Protocol: as §2, §6

[7] = Odc1p, proteoliposomes preloaded with various substrates
[8] = Odc2p, proteoliposomes preloaded with various substrates
[9] = Odc1p, added with 0.4 mM [14C]oxoglutarate, 4.0 mM in FIG. 5, partly data not shown

Molecule | [14C]oxoglutarate uptake with the internal substrate (in words) [1, 7] | [14C]oxoglutarate uptake with the internal substrate (in words) [2, 8] | [14C]oxoglutarate transport ([1]; Odc1p) [mmol/min per g protein] | [14C]oxoglutarate transport ([2]; Odc2p) [mmol/min per g protein] | also measured
Nc1ncnc2c1ncn2[C@@H]1O[C@H](COP(=O)(O)OP(=O)(O)OP(=O)(O)O)[C@@H](O)[C@H]1O [ATP] | no exchange | no exchange | – | – | –
O=C(O)C[C@@H](O)C(=O)O [D-malate] | taken up efficiently | taken up efficiently | 52.1 | 10.5 | –
O=C(O)/C=C/C(=O)O [Fumarate] | very low activity | very low activity | 8.9 | 2.4 | effect of non-radioactive potential substrates on the rate of oxoglutarate uptake (in words) [3, 9]: no effect; effect of non-radioactive potential substrates on the rate of oxoglutarate uptake (in words) ([4]; Odc2p, data not shown): no effect
CCCC(=O)C(=O)O [2-oxovalerate] | no exchange | no exchange | – | – | effect of oxomonocarboxylates on the rate of uptake of 0.4 mM oxoglutarate (in words) ([3]; Odc1p): did not influence; effect of oxomonocarboxylates on the rate of uptake of 0.4 mM oxoglutarate (in words) ([4]; Odc2p, data not shown): did not influence
O=S(=O)(O)O [sulfate] | – | – | – | – | [14C]oxoglutarate uptake with the internal substrate (in words) [1]: no exchange; homoexchange catalyzed by the proteoliposomes (in words) [5]: did not catalyze homoexchanges; [14C]oxoglutarate uptake with the internal substrate (in words) [2]: no exchange; homoexchange catalyzed by the proteoliposomes (in words) [6]: did not catalyze homoexchanges
CC[C@H](O)C(=O)O [2-hydroxybutyrate] | no exchange | no exchange | – | – | –
O=C(O)CCCCC(=O)O [Adipate] | taken up efficiently | taken up efficiently | 65.0 | 16.7 | effect of non-radioactive potential substrates on the rate of oxoglutarate uptake (in words) [3]: significant inhibition; effect of non-radioactive potential substrates on the rate of oxoglutarate uptake (in words) [4]: significant inhibition
CCC(=O)C(=O)O [2-oxobutyrate] | no exchange | no exchange | – | – | effect of oxomonocarboxylates on the rate of uptake of 0.4 mM oxoglutarate (in words) ([3]; Odc1p): did not influence; effect of oxomonocarboxylates on the rate of uptake of 0.4 mM oxoglutarate (in words) ([4]; Odc2p, data not shown): did not influence
NC(CCCC(=O)O)C(=O)O (stereo not drawn) [2-aminoadipate] | no exchange | no exchange | – | – | –
NC(CCCCC(=O)O)C(=O)O (stereo not drawn) [2-aminopimelate] | no exchange | no exchange | – | – | –
phosphate | no exchange | no exchange | – | – | homoexchange catalyzed by the proteoliposomes (in words) [5]: did not catalyze homoexchanges; homoexchange catalyzed by the proteoliposomes (in words) [6]: did not catalyze homoexchanges
O=S(O)(O)=S [thiosulfate] | – | – | – | – | [14C]oxoglutarate uptake with the internal substrate (in words) [1]: no exchange; [14C]oxoglutarate uptake with the internal substrate (in words) [2]: no exchange
O=C(O)CCCCCCC(=O)O [Suberate] | very low activity | very low activity | 2.8 | 0.4 | effect of non-radioactive potential substrates on the rate of oxoglutarate uptake (in words) [3]: virtually no effect; effect of non-radioactive potential substrates on the rate of oxoglutarate uptake (in words) [4]: virtually no effect
O=C(O)C(=O)O [oxalate] | no exchange | no exchange | – | – | effect of non-radioactive potential substrates on the rate of oxoglutarate uptake (in words) [3, 9]: virtually no effect; effect of non-radioactive potential substrates on the rate of oxoglutarate uptake (in words) ([4]; Odc2p, data not shown): virtually no effect
O=C(O)/C=C\C(=O)O [Maleate] | very low activity | very low activity | 7.1 | 2.6 | effect of non-radioactive potential substrates on the rate of oxoglutarate uptake (in words) [3, 9]: no effect; effect of non-radioactive potential substrates on the rate of oxoglutarate uptake (in words) ([4]; Odc2p, data not shown): no effect
O=C(O)CC(=O)O [Malonate] | very low activity | very low activity | 4.8 | 2.2 | effect of non-radioactive potential substrates on the rate of oxoglutarate uptake (in words) [3, 9]: virtually no effect; effect of non-radioactive potential substrates on the rate of oxoglutarate uptake (in words) ([4]; Odc2p, data not shown): virtually no effect
O=C(O)CCCCCC(=O)O [Pimelate] | taken up efficiently | taken up efficiently | 48.4 | 10.4 | effect of non-radioactive potential substrates on the rate of oxoglutarate uptake (in words) [3]: significant inhibition; effect of non-radioactive potential substrates on the rate of oxoglutarate uptake (in words) [4]: significant inhibition
NCCC[C@H](N)C(=O)O [ornithine] | – | – | – | – | homoexchange catalyzed by the proteoliposomes (in words) [5]: did not catalyze homoexchanges; homoexchange catalyzed by the proteoliposomes (in words) [6]: did not catalyze homoexchanges
